Results as given in patent US20230218608A1, “NEW STRATEGY FOR TREATING PANCREATIC CANCER” (INSERM (INSTITUT NATIONAL DE LA SANTÉ ET DE LA RECHERCHE …, priority 2020, published 2023).

Legend:
PDAC cells = assay: Dose-response viability experiments (Crystal violet viability assay); format: cell-based, human; details: 72 h; for Relative cell viability, mean of the treated cells: compared to non-treated cells
Experimental: We used 21 PDAC primary cells obtained from Patient-Derived Xenografts (PDX) from the PaCaOmics cohort, in which patients were included under the Paoli-Calmettes Institute clinical trial number 2011-A01439-32. Consent forms of informed patients were collected and registered in a central database. PDAC cells were obtained and maintained in serum-free ductal media (SFDM) as described, and incubated at 37° C. in a 5% CO2 incubator. Cell lines were monthly tested for Mycoplasma contamination and found to be negative.
We tested the sensitivity of PDAC cells to three different drugs targeting the FAO pathway: Etomoxir, Perhexiline, and Trimetazidine (all provided by Sigma-Aldrich, Saint-Quentin Fallavier, France), and to the standard chemotherapy Gemcitabine (Gemzar, Eli Lilly & Co).
Cells were seeded in 96-well plates (5,000 cells per well) and 24 h later, the medium was supplemented with increasing concentrations of the drugs in triplicates. For the combination treatment, we used Perhexiline at 5 μM with increasing doses of Gemcitabine. Cell viability was determined 72 h later by Crystal violet viability assay, which is independent from cell metabolism. Briefly, cells were fixed in Glutaraldehyde 1%, washed twice with PBS, stained with crystal violet 0.1% for 10 min, and then washed three times with PBS. Crystals were solubilized in SDS 1%, and absorbance was measured at 600 nm using an Epoch-Biotek spectrophotometer.

four PDAC xenografts = assay: Subcutaneous PDAC xenografts, tumor growth (four models overall); format: in vivo, mice; details: Perhexiline 5 mg/kg IP every other day, one month
Experimental: (§1) We assessed the FAO inhibition impact in vivo using the drug Perhexiline in combination with Gemcitabine. We performed subcutaneous xenografts in immunodeficient mice using four different primary PDAC cells. Recipient mice were 6-week-old female Swiss nude mice Crl:Nu(lco)-Foxn1nu purchased from Charles River, France. To obtain the xenografts, subcutaneous tumors from initial mouse donors were removed and finely minced with a scalpel. Then, 150 mg of tumor's pieces were mixed with 50 μl of Matrigel and implanted with a trocar (10 Gauge) in the subcutaneous space of anesthetized mice. Tumor volume was measured twice per week using a digital caliper and using the formula V=lenght×(width)/2. When tumor volume reached 200 mm^3, mice were randomly assigned in a treatment scheme:
(§2) a) Gemcitabine: 120 mg/kg twice a week
(§3) b) Perhexiline: 5 mg/kg every other day
(§4) c) Combination treatment: Gemcitabine plus Perhexiline with the same described indications
(§5) d) Vehicle: PBS in the case of Gemcitabine treatment controls and 3% DMSO in PBS for combination treatment controls.
(§6) Mice were treated by intraperitoneal injection during one month, and mice in which tumor volume reached 1.5 cm^3 during this period were ethically sacrificed and tumors removed.

four PDAC cells = assay: AnnexinV/PI apoptosis assay (flow cytometry); format: cell-based, human; details: Perhexiline 7 μM, 72 h
Experimental: Cells were seeded in 6-well plates in duplicates (150 000 cells per well) and the day after, the corresponding treatment was administered. We treated four PDAC cells with 7 μM of Perhexiline for 72 h (FIG. 5A), and in combination with 1 μM of Gemcitabine for 24 h for the PDAC084T cells. After the treatment period, cells were detached with Accutase, and resuspended in Annexin V-binding buffer (Biolegend). Cell death was determined using the Annexin V and Propidium Iodide (PI) staining (Biolegend), for apoptosis and necrosis, respectively. Ten thousand events per sample were acquired in a MAC SQuant-VYB (Miltenyi Biotec) and data analysis was done with the FlowJo software.

PDAC084T cells = assay: Real-time metabolic analysis (Seahorse XF Cell Mito Stress Test); format: cell-based, human; details: Perhexiline 10 μM, 6 h
Experimental: We tested the impact of […], and the combination treatment (6 hours) on the mitochondrial respiration in PDAC084T cells. Measurements were performed using the Seahorse Bioscience XFe24 Extracellular Flux Analyzer (Agilent). Sixteen hours before the assay, cells at exponential growth were seeded into Seahorse 24-well plates and cultured at 37° C. with 5% CO2. Six hours before the assay, the media was replaced with vehicle DMSO (0.01%), Gemcitabine (1 μM), Perhexiline (10 μM), or the combination of the two drugs. After 6 h treatment, the media was replaced with OXPHOS assay medium (DMEM without phenol red [Sigma-Aldrich reference D5030], 143 mM NaCl, 2 mM glutamine, 1 mM sodium pyruvate and 10 mM glucose, pH 7.4) and the plate was pre-incubated for 1 h at 37° C. in a non-CO2 incubator. OCR was measured under basal conditions, and then after sequential injections of Oligomycin at 1 μM, carbonyl cyanide-p-trifluoromethox-[…]-hydrazon (FCCP, the concentration was optimized for each cell line), and 0.5 μM of Rotenone plus Antimycin A. Oligomycin is a respiratory Complex V inhibitor that allows to calculate ATP production by mitochondria, and FCCP is an uncoupling agent allowing the determination of the maximal respiration and the spare capacity. […]

PDAC012T xenograft = assay: Subcutaneous PDAC xenograft, tumor growth; format: in vivo, mice; details: one month IP; Gemcitabine 120 mg/kg twice a week; intermediate responder
Experimental: as §1, §2, §3, §4, §5, §6

PDAC032T xenograft = assay: Subcutaneous PDAC xenograft, tumor growth; format: in vivo, mice; details: one month IP; Gemcitabine 120 mg/kg twice a week; low responder
Experimental: as §1, §2, §3, §4, §5, §6

PDAC084T xenograft = assay: Subcutaneous PDAC xenograft, tumor growth; format: in vivo, mice; details: one month IP; Gemcitabine 120 mg/kg twice a week, Perhexiline 5 mg/kg every other day; high responder
Experimental: as §1, §2, §3, §4, §5, §6

C1CCC(C(CC2CCCCN2)C2CCCCC2)CC1 (stereo not shown) [Perhexiline]
Cell viability (PDAC cells; Perhexiline 5 μM alone): no impacts cell viability
Relative cell viability, mean of the treated cells (PDAC cells; Perhexiline 7 μM): 0.72
Tumor growth compared with vehicle-injected mice (four PDAC xenografts): doesn't have any impact on tumor growth
Cell death (apoptosis induction) (four PDAC cells): apoptotic inductor
Decrease of mitochondrial respiration (OCR) (PDAC084T cells): about 50%

COc1ccc(CN2CCNCC2)c(OC)c1OC [Trimetazidine]
Relative cell viability (PDAC cells; Trimetazidine 62.5 μM, compared with non-treated cells): no effect in any cell

Nc1ccn([C@@H]2O[C@H](CO)[C@@H](O)C2(F)F)c(=O)n1 [Gemcitabine]
Tumor growth (PDAC012T xenograft): arresting the tumor growth
Tumor growth (PDAC032T xenograft): induces tumor regression
Tumor growth (PDAC084T xenograft): arresting the tumor growth

CCOC(=O)[C@@]1(CCCCCCOc2ccc(Cl)cc2)CO1 [Etomoxir]
Relative cell viability, mean of the treated cells (PDAC cells; Etomoxir 62.5 μM): 0.75
